The values below come from article PMC8795568 (Proceedings of the National Academy of Sciences of the …, 2022).

Molecules are shown by their SMILES.

Data set [1] concerns several solid tumors. The following applies: trial terminated; cited from earlier work.
For data set [2], the system named is NUT midline carcinoma and other solid cancers. The following applies: patients, cited from earlier work.
The test system of data set [3] is midline nuclear protein in testis (NUT) carcinoma. The following applies: phase IIb trial, closed; ref NCT02296476; cited from earlier work.
The conditions of data set [4]: clinical; cited from earlier work.
In data set [5] the test system is Panc1 cells. Nature of the data set: Cell growth assay. It is filed as cell-based, human. The following applies: Panc1, 1 μM each drug, until DMSO cells reached 100% confluence.

Take `CNC(=O)N1N=C(c2ccc(N3CCN(C)CC3)cc2)c2cc(OC)c(OC)cc2C[C@@H]1C` [BAY1238097]: in data set [1], the dose-limiting toxicities result is listed as “high rates of dose-limiting toxicities at subtherapeutic doses”.

On to `CCNC(=O)C[C@@H]1N=C(c2ccc(Cl)cc2)c2cc(OC)ccc2-n2c(C)nnc21` [GSK525762], for which, in data set [2] (adverse effects), the rate of nausea is 40% and the rate of thrombocytopenia was 44%. Also, in data set [2], the partial responses is 2 out of 10.

In the case of `Cc1sc2c(c1C)C(c1ccc(Cl)cc1)=N[C@@H](CC(=O)Nc1ccc(O)cc1)c1nnc(C)n1-2` [MK-8628], the clinical activity result in data set [3] is recorded as “lack of detectable clinical activity”.

Take `COc1cc(OC)c2c(=O)[nH]c(-c3cc(C)c(OCCO)c(C)c3)nc2c1` [RVX000222]: the safety result in data set [4] is listed as “improved safety threshold”.

In the case of `COc1ccc(CCc2nc3cc(-c4c(C)noc4C)ccc3n2C[C@H](C)N2CCOCC2)cc1Cl` [SGC-CBP30], the “cell growth (confluence)” value in data set [5] was “marginal effect on cell growth”.
